The values that follow come from ChEMBL document CHEMBL1130622, “N-(2-(4-hydroxyphenyl)ethyl)-4-chlorocinnamide: a novel antagonist at the 1A/2B NMDA receptor subtype” (Bioorg Med Chem Lett, 1998).

Holding throughout (format): functional, Rattus norvegicus
Assay [1] in a line: Antagonistic activity towards NMDA receptor 1A/2C subtype was determined.
Assay [2] is described as follows: Antagonistic activity towards NMDA receptor 1A/2A subtype was determined.
A short description of assay [3]: Antagonistic activity towards NMDA receptor 1A/2B subtype was determined.

The IC50 is the point on the concentration scale where inhibition reaches its midpoint.

Each structure is given as a SMILES string.

As for `O=C(/C=C/c1ccccc1)NCCc1ccc(O)cc1`, the results for the IC50 in assay [1], in assay [2] and in assay [3] were above 300 µM, above 300 µM and 0.68 µM, respectively.
Regarding `O=C(/C=C/c1ccc(Cl)cc1)NCCc1ccc(Cl)cc1`, the IC50 in assay [1] was above 300 µM; in assay [2] it was 160 µM; in assay [3], above 300 µM.
In the case of `N#C/C(=C\c1ccc(Cl)cc1)C(=O)NCCc1ccc(O)cc1`, the IC50 came out at 105 µM in assay [1], 78 µM in assay [2] and 3.4 µM in assay [3].
Taken in the same sequence, the figures for `N#C/C(=C\C(=O)NCCc1ccc(O)cc1)c1ccc(Cl)cc1` were above 300 µM, above 300 µM and 9 µM.
Take `O=C(/C=C/c1ccc(O)cc1)NCCc1ccc(Cl)cc1`: the half-maximal inhibitory concentration (IC50) in assay [1] is above 300 µM; in assay [2], above 300 µM; in assay [3], 0.33 µM.
On to `O=C(/C=C/c1ccc(Cl)cc1)NCCc1ccccc1`, for which the IC50 in assay [1], in assay [2] and in assay [3] was above 300 µM throughout.
As for `O=C(/C=C/c1ccc(Cl)cc1)NCCc1ccc(O)cc1`, the IC50 in assay [1] is above 300 µM; in assay [2] it was above 300 µM; in assay [3], 0.17 µM.
As to `O=C(/C=C/c1ccc(Cl)cc1)NCCc1cccc(O)c1`, the values for the IC50 in assay [1], in assay [2] and in assay [3] were 175 µM, above 300 µM and 7.4 µM, respectively.
Taken in the same sequence, the figures for `O=C(/C=C/c1ccc(O)cc1)NCCc1ccc(O)cc1` [N-P-COUMAROYL TYRAMINE] were 200 µM, above 300 µM and 21 µM.
